The structures appear in SMILES notation. Values after ≈ are worked out from the molar mass of the structure shown. Structures can show the parent of a compound that is named as a salt.

One series has as its system K. pneumoniae PC 1602. The experiment in a line: Antimicrobial activities, MIC. The series is classed as cell-based. Particulars: inoculants 10^6 CFU/ml; for minimum inhibiting concentrations (MIC): Sensitivity Disk agar-N+5% Horse blood. As to the method:
(§1) The minimum inhibiting concentrations (MIC, μg/ml) of representative compounds, among the novel carbapenem derivatives of the present invention, to various pathogenic bacteria were measured in accordance with the method described in CHEMOTHERAPY, vol. 16, No. 1, 99, 1968. The culture medium for the measurement is Sensitivity Disk agar-N+5% Horse blood, and the amount of inoculants used is 10^6 CFU/ml.

The next series has as its system H. influenzae PRC 2. The experiment in a line: Antimicrobial activities, MIC. Particulars: inoculants 10^6 CFU/ml; for minimum inhibiting concentrations (MIC): Sensitivity Disk agar-N+5% Horse blood. The series is classed as cell-based. The method, then: as §1
In another series the test system is H. influenzae PRC 44. The experiment in a line: Antimicrobial activities, MIC. The series is classed as cell-based. The conditions noted are these: inoculants 10^6 CFU/ml; for minimum inhibiting concentrations (MIC): Sensitivity Disk agar-N+5% Horse blood. The method, then: as §1
In another series the test system is E. faecalis W-73. The experiment in a line: Antimicrobial activities, MIC. It is filed as cell-based. The conditions noted are these: inoculants 10^6 CFU/ml; for minimum inhibiting concentrations (MIC): Sensitivity Disk agar-N+5% Horse blood. As to the method: as §1
The subject of another series is S. aureus 209P JC-1. Description: Antimicrobial activities, MIC. The conditions noted are these: Sensitivity Disk agar-N+5% Horse blood, inoculants 10^6 CFU/ml. It is filed as cell-based. The method, then: as §1
Series [1] concerns S. epidermidis ATCC 14990. The experiment in a line: Antimicrobial activities, MIC. Particulars: inoculants 10^6 CFU/ml; for minimum inhibiting concentrations (MIC): Sensitivity Disk agar-N+5% Horse blood. It is filed as cell-based. As to the method:
as §1

The test system of another series is B. catarrhalis W-0500. The experiment in a line: Antimicrobial activities, MIC. It is filed as cell-based. Particulars: inoculants 10^6 CFU/ml; for minimum inhibiting concentrations (MIC): Sensitivity Disk agar-N+5% Horse blood. The method, then:
as §1

Another series deals with C. freundii GN 346. The experiment in a line: Antimicrobial activities, MIC. It is filed as cell-based. The conditions noted are these: inoculants 10^6 CFU/ml; for minimum inhibiting concentrations (MIC): Sensitivity Disk agar-N+5% Horse blood. As to the method: as §1
The subject of series [2] is S. aureus M 126 (Methicillin-hyperresistant strain). The experiment in a line: Antimicrobial activities, MIC. The series is classed as cell-based. Particulars: Sensitivity Disk agar-N+5% Horse blood, inoculants 10^6 CFU/ml. As to the method: as §1
Series [3] deals with S. pneumoniae PRC 9 (Penicillin-hyperresistant strain). The experiment in a line: Antimicrobial activities, MIC. The conditions noted are these: Sensitivity Disk agar-N+5% Horse blood, inoculants 10^6 CFU/ml. The series is classed as cell-based. The method, then:
as §1

The subject of the next series is P. vulgaris GN 7919. Description: Antimicrobial activities, MIC. It is filed as cell-based. Particulars: inoculants 10^6 CFU/ml; for minimum inhibiting concentrations (MIC): Sensitivity Disk agar-N+5% Horse blood. The method, then: as §1
A further series deals with E. coli NIHJ JC-2. The experiment in a line: Antimicrobial activities, MIC. The series is classed as cell-based. The conditions noted are these: inoculants 10^6 CFU/ml; for minimum inhibiting concentrations (MIC): Sensitivity Disk agar-N+5% Horse blood. As to the method: as §1
The test system of a further series is E. hirae ATCC 8043. Description: Antimicrobial activities, MIC. The series is classed as cell-based. The conditions noted are these: inoculants 10^6 CFU/ml; for minimum inhibiting concentrations (MIC): Sensitivity Disk agar-N+5% Horse blood. The method, then: as §1
For another series, the system named is mice (ICR, male). Description: Acute Toxicity Test. The series is classed as in vivo. The conditions noted are these: intraveneously administered, 2000 mg/kg, one group of three mice. As to the method: The compound of Example 3 according to the present invention was intraveneously administered at a dose of 2000 mg/kg to mice (ICR, male) (one group consisting of three mice).

Setting [4] is: Staphylococcus aureus, read-out: minimum inhibiting concentrations (MIC).

Turning to `C[C@@H](O)[C@H]1C(=O)N2C(C(=O)[O-])=C(c3cn4c[n+](C)cc4s3)[C@H](C)[C@H]12` [Compound B, (1S,5R,6S)-6-((1R)-1-Hydroxyethyl)-1-methyl-2-(6-methylimidazo[5,1-b]thiazolium-2-yl)-1-carbapen-2-em-3-carboxylate (intramolecular salt), reference compound], the “minimum inhibiting concentrations (MIC)” value with K. pneumoniae PC 1602 was 0.10 µg/mL; with H. influenzae PRC 2, 0.10 µg/mL; in the series on H. influenzae PRC 44, 0.39 µg/mL; with E. faecalis W-73, 0.20 µg/mL; in the series on S. aureus 209P JC-1 it was under 0.025 µg/mL; in [1], under 0.025 µg/mL. Besides, the “minimum inhibiting concentrations (MIC)” value with B. catarrhalis W-0500 is under 0.025 µg/mL; in the series with C. freundii GN 346 it was 0.10 µg/mL; in [2], 3.13 µg/mL; in [3] it was 0.05 µg/mL; in the series with P. vulgaris GN 7919, 0.20 µg/mL; in the series with E. coli NIHJ JC-2 it was under 0.025 µg/mL. Besides, the “minimum inhibiting concentrations (MIC)” value in the series with E. hirae ATCC 8043 was 0.78 µg/mL.

Regarding `CSc1c2sc(C3=C(C(=O)[O-])N4C(=O)[C@H]([C@@H](C)O)[C@H]4[C@H]3C)cn2c[n+]1C[C@H](O)CN.Cl` [Example 99, (1S,5R,6S)-2-[6-((2R)-3-amino-2-hydroxy)propyl-7-methylthioimidazo[5,1-b]thiazolium-2-yl]-6-((1R)-1-hydroxyethyl)-1-methyl-1-carbapen-2-em-3-carboxylate (intramolecular salt) hydrochloride], the “minimum inhibiting concentrations (MIC)” value was 0.10 µg/mL in the series with K. pneumoniae PC 1602; 0.10 µg/mL in the series on H. influenzae PRC 2; 0.78 µg/mL in the series with H. influenzae PRC 44; 0.20 µg/mL with E. faecalis W-73; under 0.025 µg/mL in the series on S. aureus 209P JC-1; under 0.025 µg/mL in series [1]. The “minimum inhibiting concentrations (MIC)” value is 0.05 µg/mL in the series on B. catarrhalis W-0500; 0.20 µg/mL in the series on C. freundii GN 346; 0.78 µg/mL in series [2]; 0.05 µg/mL in series [3]; 0.39 µg/mL with P. vulgaris GN 7919; 0.05 µg/mL in the series with E. coli NIHJ JC-2. Besides, in the series on E. hirae ATCC 8043, the “minimum inhibiting concentrations (MIC)” value came to 0.39 µg/mL.

Take `CSc1c2sc(C3=C(C(=O)[O-])N4C(=O)[C@H]([C@@H](C)O)[C@H]4[C@H]3C)cn2c[n+]1CC(N)=O` [Example 3, (1S,5R,6S)-2-(6-carbamoylmethyl-7-methylthioimidazo[5,1-b]thiazolium-2-yl)-6-((1R)-1-hydroxyethyl)-1-methyl-1-carbapen-2-em-3-carboxylate (intramolecular salt)]: in the series with mice (ICR, male), the “survival in acute toxicity test” value is given as “all the mice survived”. Moreover, the “minimum inhibiting concentrations (MIC)” value with K. pneumoniae PC 1602 was 0.10 µg/mL; in the series on H. influenzae PRC 2 it was 0.05 µg/mL; in the series with H. influenzae PRC 44, 0.20 µg/mL; in the series with E. faecalis W-73, 0.20 µg/mL; with S. aureus 209P JC-1, under 0.025 µg/mL; in series [1] it was under 0.025 µg/mL. Besides, the “minimum inhibiting concentrations (MIC)” value in the series with B. catarrhalis W-0500 came out at 0.025 µg/mL; with C. freundii GN 346, 0.20 µg/mL; in series [2], 1.56 µg/mL; in series [3] it was 0.025 µg/mL; with P. vulgaris GN 7919, 0.20 µg/mL; with E. coli NIHJ JC-2, 0.025 µg/mL. The “minimum inhibiting concentrations (MIC)” value with E. hirae ATCC 8043 was 0.39 µg/mL.

Take `CSc1c2sc(C3=C(C(=O)[O-])N4C(=O)[C@H]([C@@H](C)O)[C@H]4[C@H]3C)cn2c[n+]1CCCN.Cl` [Example 14, (1S,5R,6S)-2-[6-(3-aminopropyl)-7-methylthioimidazo[5,1-b]thiazolium-2-yl]-6-((1R)-1-hydroxyethyl)-1-methyl-1-carbapen-2-em-3-carboxylate (intramolecular salt) hydrochloride]: the “minimum inhibiting concentrations (MIC)” value is 0.10 µg/mL with K. pneumoniae PC 1602; 0.05 µg/mL in the series on H. influenzae PRC 2; 0.78 µg/mL in the series on H. influenzae PRC 44; 0.20 µg/mL with E. faecalis W-73; under 0.025 µg/mL with S. aureus 209P JC-1; under 0.025 µg/mL in [1]. In addition, the “minimum inhibiting concentrations (MIC)” value with B. catarrhalis W-0500 was found to be 0.025 µg/mL; in the series with C. freundii GN 346, 0.10 µg/mL; in series [2], 0.39 µg/mL; in [3], 0.025 µg/mL; in the series with P. vulgaris GN 7919 it was 0.39 µg/mL; in the series with E. coli NIHJ JC-2 it was 0.05 µg/mL. Further, in the series with E. hirae ATCC 8043, the “minimum inhibiting concentrations (MIC)” value turned out to be 0.39 µg/mL.

As to `C[C@@H](O)[C@H]1C(=O)N2C(C(=O)O)=C(SCCN=CN)C[C@H]12` [Compound A, Imipenem, reference compound], the MIC in the series on K. pneumoniae PC 1602 (Klebsiella pneumoniae, PC1602, Sensitivity Disk agar-N+5% Horse blood, read-out: minimum inhibiting concentrations (MIC)) is 0.2 µg/mL (≈ 0.668 µM); in the series with H. influenzae PRC 2 (Haemophilus influenzae, PRC2, Sensitivity Disk agar-N+5% Horse blood, read-out: minimum inhibiting concentrations (MIC)) it was 0.79 µg/mL (≈ 2.64 µM); in the series on H. influenzae PRC 44 (Haemophilus influenzae, PRC44, Sensitivity Disk agar-N+5% Horse blood, read-out: minimum inhibiting concentrations (MIC)) it was 12.5 µg/mL (≈ 41.8 µM); in the series on E. faecalis W-73 (Enterococcus faecalis, W73, Sensitivity Disk agar-N+5% Horse blood, read-out: minimum inhibiting concentrations (MIC)), 0.78 µg/mL (≈ 2.61 µM); in the series with S. aureus 209P JC-1 (setting [4]), under 0.025 µg/mL; in series [1] (Staphylococcus epidermidis, ATCC14990, Sensitivity Disk agar-N+5% Horse blood, read-out: minimum inhibiting concentrations (MIC)), under 0.025 µg/mL. In addition, the MIC with B. catarrhalis W-0500 (Moraxella catarrhalis, W0500, Sensitivity Disk agar-N+5% Horse blood, read-out: minimum inhibiting concentrations (MIC)) was found to be 0.05 µg/mL (≈ 0.167 µM); in the series with C. freundii GN 346 (Citrobacter freundii, GN346, Sensitivity Disk agar-N+5% Horse blood, read-out: minimum inhibiting concentrations (MIC)), 0.2 µg/mL (≈ 0.668 µM); in [2] (setting [4]), 25 µg/mL (≈ 83.5 µM); in series [3] (Streptococcus pneumoniae, read-out: minimum inhibiting concentrations (MIC)), 0.2 µg/mL (≈ 0.668 µM); in the series with P. vulgaris GN 7919 (Proteus vulgaris, GN7919, Sensitivity Disk agar-N+5% Horse blood, read-out: minimum inhibiting concentrations (MIC)) it was 0.1 µg/mL (≈ 0.334 µM); in the series on E. coli NIHJ JC-2 (Escherichia coli, NIHJJC2, Sensitivity Disk agar-N+5% Horse blood, read-out: minimum inhibiting concentrations (MIC)) it was 0.1 µg/mL (≈ 0.334 µM). Besides, the MIC in the series on E. hirae ATCC 8043 (Enterococcus hirae, ATCC8043, Sensitivity Disk agar-N+5% Horse blood, read-out: minimum inhibiting concentrations (MIC)) came to 0.78 µg/mL (≈ 2.61 µM).

`CSc1c2sc(C3=C(C(=O)[O-])N4C(=O)[C@H]([C@@H](C)O)[C@H]4[C@H]3C)cn2c[n+]1C` [Example 2, (1S,5R,6S)-6-((1R)-1-hydroxyethyl)-1-methyl-2-(6-methyl-7-methylthioimidazo[5,1-b]thiazolium-2-yl)-1-carbapen-2-em-3-carboxylate (intramolecular salt)]: the “minimum inhibiting concentrations (MIC)” value in the series with K. pneumoniae PC 1602 is 0.10 µg/mL; in the series with H. influenzae PRC 2, 0.05 µg/mL; in the series with H. influenzae PRC 44 it was 0.20 µg/mL; in the series with E. faecalis W-73, 0.20 µg/mL; in the series with S. aureus 209P JC-1, under 0.025 µg/mL; in series [1], under 0.025 µg/mL. Further, the “minimum inhibiting concentrations (MIC)” value in the series on B. catarrhalis W-0500 came to 0.025 µg/mL; in the series on C. freundii GN 346, 0.10 µg/mL; in [2], 1.56 µg/mL; in series [3] it was 0.025 µg/mL; with P. vulgaris GN 7919 it was 0.20 µg/mL; with E. coli NIHJ JC-2, 0.025 µg/mL. The “minimum inhibiting concentrations (MIC)” value in the series on E. hirae ATCC 8043 came out at 0.78 µg/mL.

For the origin of these results see patent US6825187B2, “Carbapenem derivatives of quarternary salt type” (Meiji Seika Kaisha, Ltd., priority 2000, dated 2004).
